Test results: patent US9303033B2, “Pyrazolopyrimidines and related heterocycles as CK2 inhibitors” (SENHWA BIOSCIENCES, INC., priority 2009, dated 2016)
Read-outs that look alike come from different tables or passages of the source.

Columns and labels:
CK2 ααββ = CK2 ααββ (Homo sapiens (Human), UniProt P68400); assay: CK2 assay (cell-free, 33P-ATP, phosphocellulose filter plate); type: biochemical
Description: Modulatory activity of compounds described herein was assessed in vitro in cell-free CK2 assays by the following method.
Reactions were maintained for 40 min at 23° C. The reactions were quenched with 100 ul of 0.75% Phosphoric acid, then transferred to and filtered through a Phosphocellulose filter plate (Millipore, MSPH-N6B-50). After washing each well 4 times with 0.75% Phosphoric acid, scintillation fluid (20 uL) was added to each well and the residual radioactivity was measured using a Wallac luminescence counter.

recombinant PIM-1 = recombinant PIM-1 (Homo sapiens (Human), UniProt P11309); assay: PIM-1 assay (33P-ATP filter binding); type: biochemical; details: read-out: PIM1: IC50 (30 μM ATP)
Description: (SEQ ID NO.: 5), 10 mM MgAcetate, 15 uM ATP, [γ-^33P-ATP] (specific activity approx. 500 cpm/pmol), DMSO 4% and test inhibitor compound at the required concentration. The reaction was initiated by the addition of the Magnesium ATP mixture. After 40 min incubation at 23° C., the reactions were quenched by the addition of 100 ul 0.75% Phosphoric acid, and the labeled peptide collected by filtration through a phosphocellulose filter plate. The plate was washed 4 times with 0.075% phosphoric acid (100 ul per well) and then, after the addition of scintillation fluid (20 ul per well), the counts were measured by a scintillation counter.

recombinant human PIM2 = recombinant human PIM2 (Homo sapiens (Human), UniProt Q9P1W9); assay: PIM-2 assay (33P-ATP filter binding); type: biochemical; details: for IC50: PIM2: IC50 (5 μM ATP), 5 μM ATP; for PIM2: % inh […]: at […] compound
Description: Test compounds dissolved and diluted in DMSO (2 μl) were added to a reaction mixture comprising 10 μl of 5× Reaction Buffer (40 mM MOPS pH 7.0, 5 mM EDTA), 10 μl of recombinant human PIM2 solution (4 ng PIM-2 dissolved in dilution buffer (20 mM MOPS pH 7.0; EDTA 1 mM; 5% Glycerol; 0.01% Brij 35; 0.1%; 0.1% 2-mercaptoethanol; 1 mg/ml BSA)) and 8 ul of water.

MDAMB453 = assay: Cell proliferation assay with Alamar Blue (AB), MDAMB453; type: cell-based
Description: (§1) A representative cell-proliferation assay protocol using Alamar Blue dye (stored at 4° C., use 20 ul per well) is described hereafter.
(§2) a. Split and trypsinize cells.
(§3) b. Count cells using hemocytometer.
(§4) c. Plate 4,000-5,000 cells per well in 100 μl of medium and seed into a 96-well plate according to the following plate layout. Add cell culture medium only to wells B10 to B12.
(§5) d. Add 100 μl of 2× drug dilution to each well in a concentration shown in the plate layout above. […] Total volume is 200 μl/well.
(§6) e. Incubate four (4) days at 37° C., 5% CO2 in a humidified incubator.
(§7) f. Add […] Alamar Blue reagent to each well.
(§8) g. Incubate for four (4) hours at 37° C., 5% CO2 in a humidified incubator.
(§9) h. Record fluorescence at an excitation wavelength of 544 nm and emission wavelength of 590 nm using a microplate reader.
(§10) In the assays, cells are cultured with a test compound for approximately four days, the dye is then added to the cells and fluorescence of […] dye is detected after approximately four hours. Different types of cells can be utilized in the assays (e.g., HCT-116 human colorectal carcinoma cells, PC-3 human prostatic cancer cells, MDA-MB231 human breast cancer cells, K-562 human chronic myelogenous leukemia (CML) cells, MiaPaca human pancreatic carcinoma cells, MV-4 human acute myeloid leukemia cells, and BxPC3 human pancreatic adenocarcinoma cells).

[1] = test system: BxPC3 human pancreatic adenocarcinoma cells; assay: Cell proliferation assay with Alamar Blue (AB), BxPC3; type: cell-based
Description: as §1, §2, §3, §4, §5, §6, §7, §8, §9, §10

[2] = Homo sapiens, MDA-MB-453, MDAMB453 cells, read-out: AB: MDAMB453
[3] = Homo sapiens, BXPC-3, read-out: AB: BxPC3
[4] = MDAMB453 cells, read-out: AB: MDAMB453 IC50

CK2 ααββ, sequence (P68400 whole entry): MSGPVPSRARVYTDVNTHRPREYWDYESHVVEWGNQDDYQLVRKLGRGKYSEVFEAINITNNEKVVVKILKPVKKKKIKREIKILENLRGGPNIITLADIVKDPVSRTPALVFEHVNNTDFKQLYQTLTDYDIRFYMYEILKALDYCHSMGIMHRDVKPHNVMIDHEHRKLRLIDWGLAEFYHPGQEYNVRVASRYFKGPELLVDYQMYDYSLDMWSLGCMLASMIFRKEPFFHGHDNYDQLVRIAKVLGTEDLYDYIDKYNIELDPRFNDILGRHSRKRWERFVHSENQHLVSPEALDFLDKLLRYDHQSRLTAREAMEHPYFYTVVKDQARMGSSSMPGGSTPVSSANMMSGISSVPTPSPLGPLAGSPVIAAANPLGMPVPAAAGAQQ
CK2 ααββ, sequence (P67870 whole entry partner): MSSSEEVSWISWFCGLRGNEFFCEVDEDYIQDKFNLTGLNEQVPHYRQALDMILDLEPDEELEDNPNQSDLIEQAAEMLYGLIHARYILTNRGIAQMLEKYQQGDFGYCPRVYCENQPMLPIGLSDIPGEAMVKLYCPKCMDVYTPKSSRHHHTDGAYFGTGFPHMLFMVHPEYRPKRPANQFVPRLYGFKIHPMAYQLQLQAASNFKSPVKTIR
recombinant human PIM2, sequence (Q9P1W9 whole entry): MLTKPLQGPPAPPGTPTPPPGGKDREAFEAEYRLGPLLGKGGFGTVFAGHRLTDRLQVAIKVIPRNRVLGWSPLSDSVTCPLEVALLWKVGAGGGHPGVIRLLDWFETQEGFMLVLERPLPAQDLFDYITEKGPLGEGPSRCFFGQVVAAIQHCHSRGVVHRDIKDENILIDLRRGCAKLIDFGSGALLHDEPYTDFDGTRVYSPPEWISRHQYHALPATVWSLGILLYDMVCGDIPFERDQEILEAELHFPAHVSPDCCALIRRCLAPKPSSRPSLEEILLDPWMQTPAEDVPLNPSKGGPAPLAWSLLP
recombinant PIM-1, sequence (P11309 whole entry): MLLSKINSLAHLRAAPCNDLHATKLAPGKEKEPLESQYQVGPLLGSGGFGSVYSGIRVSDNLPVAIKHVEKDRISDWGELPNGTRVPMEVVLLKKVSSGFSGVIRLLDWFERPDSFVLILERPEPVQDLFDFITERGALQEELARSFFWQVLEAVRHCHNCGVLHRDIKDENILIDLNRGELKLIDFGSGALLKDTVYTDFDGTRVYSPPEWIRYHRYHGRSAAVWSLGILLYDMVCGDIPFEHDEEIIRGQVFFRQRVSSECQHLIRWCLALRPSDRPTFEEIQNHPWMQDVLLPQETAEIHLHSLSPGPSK

SMILES | IC50 (CK2 ααββ) | IC50 (recombinant PIM-1) | IC50 (recombinant human PIM2) | IC50 (MDAMB453; [2]) | IC50 [1, 3] | PIM2: % inh […] (recombinant human PIM2) | IC50 (MDAMB453; [4]) | IC50 ([1]; read-out: AB: BxPC3 IC50)
CC(C)CNc1cc(NC2CC2)n2ncc(/C=C3\SC(=O)NC3=O)c2n1 [Example F3] | < 1000 nM | 2060 nM | 1640 nM | – | – | – | – | –
CCN1CCCC1CNc1cc(NC2CC2)n2ncc(/C=C3\SC(=O)NC3=O)c2n1 (centres unmarked) [Example G3] | < 100 nM | 2060 nM | 1850 nM | 7700 nM | 9450 nM | – | – | –
CC(O)CNc1cc(NC2CC2)n2ncc(/C=C3\SC(=O)NC3=O)c2n1 (centres unmarked) [Example H3] | < 1000 nM | 2390 nM | > 2500 nM | – | – | – | – | –
CN(C)c1cc(NC2CC2)n2ncc(/C=C3\SC(=O)NC3=O)c2n1 [Example I3] | < 100 nM | > 2500 nM | 876 nM | – | – | – | – | –
O=C1NC(=O)/C(=C/c2cnn3c(NC4CC4)cc(Nc4cccc(Cl)c4)nc23)S1 [Example J3] | < 1000 nM | > 2500 nM | > 2500 nM | – | – | – | – | –
O=C1NC(=O)/C(=C/c2cnn3c(NC4CC4)cc(N4CCOCC4)nc23)S1 [Example K3] | < 1000 nM | 918 nM | 1390 nM | – | – | – | – | –
CCN(CC)c1cc(NC2CC2)n2ncc(/C=C3\SC(=O)NC3=O)c2n1 [Example L3] | < 1000 nM | > 2500 nM | 1430 nM | – | – | – | – | –
CN1CCC(N(C)c2cc(NC3CC3)n3ncc(/C=C4\SC(=O)NC4=O)c3n2)C1 (centres unmarked) [Example M3] | < 100 nM | 1450 nM | 1440 nM | – | – | – | – | –
O=C1NC(=O)/C(=C/c2cnn3c(NC4CC4)cc(NCCF)nc23)S1 [Example N3] | < 1000 nM | > 2500 nM | > 2500 nM | – | – | – | – | –
O=C1NC(=O)/C(=C/c2cnn3c(NC4CC4)cc(N4CC[C@@H](F)C4)nc23)N1 [Example P2] | < 10 nM | – | 708 nM | 660 nM | 2120 nM | – | – | –
CN1C(=O)S/C(=C\c2cnn3c(NC4CC4)cc(Nc4cccc(Cl)c4)nc23)C1=O [Example P3] | < 1000 nM | > 2500 nM | > 2500 nM | – | – | – | – | –
CN(C)c1ccc(-c2cc(NC3CC3)n3ncc(/C=C4\NC(=O)NC4=O)c3n2)cn1 [Example P4] | < 10 nM | – | 75.4 nM | 5280 nM | 549 nM | – | – | –
O=C1NC(=O)/C(=C/c2cnn3c(NC4CCN(CCO)CC4)cc(Nc4cccc(Cl)c4)nc23)N1 [Example P5] | < 100 nM | – | > 2500 nM | 825 nM | 16500 nM | – | – | –
O=C1NC(=O)/C(=C/c2cnn3c(NCC4CC4)cc(NN4CCOCC4)nc23)N1 [Example Q2] | < 10 nM | – | 284 nM | 154 nM | 5370 nM | – | – | –
O=C1NC(=O)/C(=C/c2cnn3c(NC4CC4)cc(-c4ccncc4)nc23)N1 [Example Q4] | < 10 nM | – | 256 nM | 1070 nM | 745 nM | – | – | –
Cc1c(N2CCN(c3ccccn3)CC2)nc2c(C=C3NC(=O)NC3=O)cnn2c1NC1CC1 [Example Q46] | < 10 nM | – | – | – | – | 13.151% | > 30000 nM | > 30000 nM
NCc1cccc(-c2cc(NC3CC3)n3ncc(/C=C4\NC(=O)NC4=O)c3n2)c1 [Example R4] | < 10 nM | – | 48.7 nM | 14900 nM | 10600 nM | – | – | –
O=C1NC(=O)/C(=C/c2cnn3c(NC4CC4)cc(NN4CCOCC4)nc23)N1 [Example S2] | < 10 nM | – | 1300 nM | 3510 nM | 3880 nM | – | – | –
O=C1NC(=O)/C(=C/c2cnn3c(NC4CC4)cc(-c4cccc(O)c4)nc23)N1 [Example S3] | < 10 nM | – | 614 nM | 330 nM | 10600 nM | – | – | –
CC(O)c1cccc(-c2cc(NC3CC3)n3ncc(/C=C4\NC(=O)NC4=O)c3n2)c1 (centres unmarked) [Example S4] | < 10 nM | – | > 2500 nM | 20000 nM | 4610 nM | – | – | –
O=C1NC(=O)C(=Cc2cnn3c(NC4CC4)cc(Nc4ccc(OCCN5CCOCC5)cc4F)nc23)N1 [Example S42] | < 10 nM | – | – | – | – | 44.49% | 2740 nM | 5000 nM
O=C1NC(=O)/C(=C/c2cnn3c(NCC4CC4)cc(Nc4cccc(Cl)c4)nc23)N1 [Example T1] | < 10 nM | – | 509 nM | 2200 nM | 12300 nM | – | – | –

SMILES | IC50 (CK2 ααββ) | IC50 (recombinant PIM-1) | IC50 (recombinant human PIM2) | IC50 (MDAMB453; [2]) | IC50 [1, 3] | PIM2: % inh […] (recombinant human PIM2) | IC50 (MDAMB453; [4]) | IC50 ([1]; read-out: AB: BxPC3 IC50)
O=C1NC(=O)/C(=C/c2cnn3c(NC4CC4)cc(NCC4CC4)nc23)N1 [Example T2] | < 10 nM | – | 998 nM | 2490 nM | 6900 nM | – | – | –
O=C1NC(=O)/C(=C/c2cnn3c(NC4CC4)cc(-c4cccc(OC(F)(F)F)c4)nc23)N1 [Example T3] | < 10 nM | – | 891 nM | 402 nM | 1540 nM | – | – | –
CCCS(=O)(=O)Nc1cccc(-c2cc(NC3CC3)n3ncc(/C=C4\NC(=O)NC4=O)c3n2)c1 [Example T4] | < 100 nM | – | > 2500 nM | 1710 nM | 2740 nM | – | – | –
CN(C)CCCOc1ccc(Nc2cc(NC3CC3)n3ncc(C=C4NC(=O)NC4=O)c3n2)cc1Cl [Example T42] | < 10 nM | – | – | – | – | 44.33% | 2090 nM | 5330 nM
C[C@H](Nc1cc(NC2CC2)n2ncc(/C=C3\NC(=O)NC3=O)c2n1)C1CC1 [Example U2] | < 10 nM | – | 766 nM | 12800 nM | > 30000 nM | – | – | –
NC(=O)c1cccc(-c2cc(NC3CC3)n3ncc(/C=C4\NC(=O)NC4=O)c3n2)c1 [Example U3] | < 10 nM | – | > 2500 nM | 3740 nM | 3680 nM | – | – | –
O=C1NC(=O)/C(=C/c2cnn3c(NC4CC4)cc(-c4cccnc4)nc23)N1 [Example U4] | < 10 nM | – | > 2500 nM | 1260 nM | 8130 nM | – | – | –
O=C1NC(=O)C(=Cc2cnn3c(NC4CC4)cc(Nc4ccc(OCCN5CCOCC5)c(Cl)c4)nc23)N1 [Example U42] | < 10 nM | – | – | – | – | 48.912% | 1090 nM | 2460 nM
O=C1NC(=O)/C(=C/c2cnn3c(NCC4CC4)cc(Nc4cccnc4)nc23)N1 [Example V1] | < 100 nM | – | > 2500 nM | 5090 nM | 6190 nM | – | – | –
CN1CCC(Nc2cc(NC3CC3)n3ncc(/C=C4\NC(=O)NC4=O)c3n2)CC1 [Example V2] | < 10 nM | – | 1370 nM | 1480 nM | 1630 nM | – | – | –
O=C1NC(=O)/C(=C/c2cnn3c(NC4CC4)cc(-c4cccc(CO)c4)nc23)N1 [Example V3] | < 10 nM | – | 649 nM | 477 nM | 5170 nM | – | – | –
CNc1cc(-c2cccc(CNC(C)=O)c2)nc2c(/C=C3\NC(=O)NC3=O)cnn12 [Example V4] | < 100 nM | – | > 2500 nM | 12400 nM | > 30000 nM | – | – | –
Cc1ccc(Nc2cc(NCC3CC3)n3ncc(/C=C4\NC(=O)NC4=O)c3n2)nc1 [Example W1] | < 100 nM | – | > 2500 nM | 7420 nM | 9210 nM | – | – | –
COC(=O)c1cccc(-c2cc(NC3CC3)n3ncc(/C=C4\NC(=O)NC4=O)c3n2)c1 [Example W3] | < 10 nM | – | > 2500 nM | 1710 nM | 2050 nM | – | – | –
CC(=O)c1cccc(-c2cc(NC3CC3)n3ncc(/C=C4\NC(=O)NC4=O)c3n2)c1 [Example W4] | < 10 nM | – | 2080 nM | 12300 nM | > 30000 nM | – | – | –
O=C1NC(=O)/C(=C/c2cnn3c(NCC4CC4)cc(Nc4ccc(Cl)nc4)nc23)N1 [Example X1] | < 100 nM | – | > 2500 nM | 6940 nM | 7990 nM | – | – | –
CS(=O)(=O)c1cccc(-c2cc(NC3CC3)n3ncc(/C=C4\NC(=O)NC4=O)c3n2)c1 [Example X3] | < 10 nM | – | > 2500 nM | 517 nM | 13100 nM | – | – | –
CCS(=O)(=O)Nc1cccc(-c2cc(NC3CC3)n3ncc(/C=C4\NC(=O)NC4=O)c3n2)c1 [Example X4] | < 10 nM | – | 1730 nM | > 30000 nM | > 30000 nM | – | – | –
CCCCS(=O)(=O)Nc1cccc(-c2cc(NC3CC3)n3ncc(/C=C4\NC(=O)NC4=O)c3n2)c1 [Example Y4] | < 10 nM | – | > 2500 nM | 1980 nM | 2250 nM | – | – | –
CN(C)CCCOc1cccc(-c2cc(NC3CC3)n3ncc(/C=C4\NC(=O)NC4=O)c3n2)c1 [Example Z3] | < 10 nM | – | 2210 nM | 284 nM | 2920 nM | – | – | –
O=C1NC(=O)/C(=C/c2cnn3c(NC4CC4)cc(-c4cccc(NS(=O)(=O)C5CC5)c4)nc23)N1 [Example Z4] | < 10 nM | – | > 2500 nM | 15700 nM | 29000 nM | – | – | –
